A word on the IC50: it is the point on the concentration scale where inhibition reaches its midpoint. Lower therefore signals higher potency.

We go through one compound from publication PMC13311170, “Ganaxolone, an approved therapy for CDKL5-deficiency disorder, is an inhibitor of PTP1B” (The Journal of Biological Chemistry, 2026).

This test has as its target T1, PTP1B (Homo sapiens, UniProt P18031).
T1 construct: gene PTPN1; WT PTP1B containing a His-tag
T1 sequence (P18031 1-435): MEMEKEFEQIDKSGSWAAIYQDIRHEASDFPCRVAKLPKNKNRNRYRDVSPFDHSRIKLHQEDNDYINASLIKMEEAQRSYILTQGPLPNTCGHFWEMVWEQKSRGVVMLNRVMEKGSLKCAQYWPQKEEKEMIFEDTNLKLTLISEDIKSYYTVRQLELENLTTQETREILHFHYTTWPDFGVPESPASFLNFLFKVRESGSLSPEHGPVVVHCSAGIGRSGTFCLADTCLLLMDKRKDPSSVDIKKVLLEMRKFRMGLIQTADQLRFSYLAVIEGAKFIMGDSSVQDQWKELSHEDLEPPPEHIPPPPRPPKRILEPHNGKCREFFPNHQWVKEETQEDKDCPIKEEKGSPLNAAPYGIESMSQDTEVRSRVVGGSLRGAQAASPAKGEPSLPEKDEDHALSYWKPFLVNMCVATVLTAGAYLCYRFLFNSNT
Kind of test: DiFMUP fluorescence phosphatase assay with […] purified PTP1B. The class given is biochemical.

Take `CC(=O)[C@H]1CC[C@H]2[C@@H]3CC[C@H]4C[C@](C)(O)CC[C@]4(C)[C@H]3CC[C@]12C` [ganaxolone, 3α-Hydroxy-3β-methyl-5α-pregnan-20-one]: the half-inhibitory concentration (IC50) came to 600 nM.
